According to patent US4161520A, “Method of treating hypertension” (priority 1976, dated 1979):

Columns and labels:
Type in all cases: in vivo
DOCA Na rat = experiment: Low dose chronic administration in the DOCA Na rat (Example 4, Table IV); conditions: for Stroke Volume Index, mean value: control 4.82±0.31; for Pulse pressure, mean value: control 62.5±5.3; for Arterial blood pressure, mean value: control 175.0±3.8; for Arterial blood pressure, % Δ / Pulse pressure, % Δ / Stroke Volume Index, % Δ: vs control
Method: A test was conducted for antihypertensive activity in the DOCA Na rat utilizing low dose chronic administration.
DOCA Na male rats weighing 170 to 210 grams are used in the test. DOCA Na hypertension is induced by unilateral nephrectomy followed by subcutaneous implantation of a 25 mg. desoxycorticosterone (DOCA) pellet. Animals are placed in individual cages receiving 0.9% sodium chloride solution to drink and rat chow diet ad libitum. Two weeks are allowed to elapse from the time of surgery for development of hypertension, i.e., systolic blood pressure of at least 150 mmHg.
Mean blood pressure and heart rate in the rats dosed at 5 mg/kg/day, 1 mg/kg/day, 0.1 mg/kg/day and as those used as controls are measured directly by placing a polyethylene catheter in a femoral artery and thereafter measuring the blood pressure by a Stathem Pressure Transducer. Control animals and drug dosed subjects are measured side by side. Direct readings were taken when the animal model began to show signs of inherent deterioration.
The experimental results are represented as absolute values. Drug-related alterations in mean blood pressure are expressed as percentage change by comparing control absolute values with drug absolute values. Compounds are considered active when about a 15% or greater reduction in blood pressure is obtained. However, the reduction in blood pressure must show mathematical significance ([…]).
A derivative of the polyether ionophore, laslaocid, i.e., the bromo derivative of lasalocid, was tested in the above screen. The compound was administered in a food admix on a daily basis.

DOCA-Na. rat = experiment: Comparative antihypertensive activity of polyether ionophores in the DOCA-Na rat (Example 3, Table III); conditions: oral, five-day period, daily dose 1/100 of oral LD50 up to 10 mg/kg/day
Method: Using bromolasalocid as a standard for comparison, a number of polyether ionophores were tested for antihypertensive activity. The tests were conducted utilizing single oral dosages in the DOCA-Na. rat over a five-day period with dosing discontinued thereafter. Blood pressure monitoring was carried out for the five-day period and daily after cessation of dosing until blood pressure returned to pre-drug levels. […] The daily dosage was calculated by using one-one hundredth (1/100) of the oral (per os) toxicity (LD50) up to a maximum of 10 mg/kg/day. The antihypertensive activity expressed as AHR (Subacute antihypertensive ratio) was calculated using bromolasalocid as the standard reference (Table III).

[1] = Oral (per os) toxicity (LD50); conditions: in vivo, read-out: LD50
[2] = tested on: spontaneous hypertensive (SH) rat; experiment: Effects on blood pressure in the spontaneous hypertensive (SH) rat (Example 2, Table II)
Method: Test conducted for effects on blood pressure in the spontaneous hypertensive (SH) rat.
Twelve week old spontaneous hypertensive male rats (Okomoto strain) are used as a model in the antihypertensive test.
Systolic blood pressure is measured indirectly from the tail of unanesthetized rats using a pneumatic pulse transducer. Control readings are taken prior to drug administration and post drug readings are taken at 1, 3, 6 and 24 hours.
Drug-related alteration in systolic blood pressure is expressed as percentage change by comparing control absolute values with post drug absolute values.
The results are expressed as absolute values and percent changes from controls.
Compounds are considered active when about a 15% or greater reduction in blood pressure is obtained. However, the reduction in blood pressure must show mathematical significance ([…]). The compound was administered for a five-day period by intubation and thereafter dosing was discontinued but blood pressure monitoring was continued.

[3] = 0.1 mg/kg/day in food admix, at 24 Days
[4] = 1 mg/kg/day in food admix, at 28 Days
[5] = 5 mg/kg/day in food admix, at 11 Days

With CC[C@@H](C(=O)[C@@H](C)[C@@H](O)[C@H](C)CCc1c(Br)cc(C)c(O)c1C(=O)O)[C@H]1O[C@](CC)([C@H]2CC[C@](O)(CC)[C@H](C)O2)C[C@@H]1C [bromolasalocid] the “Stroke Volume Index, mean value” (DOCA Na rat; [3]) was 4.03±0.17, the “Pulse pressure, mean value” (DOCA Na rat; [3]) was 41.1±7.4 and the “Arterial blood pressure, mean value” (DOCA Na rat; [3]) was 132.4±16.0. For the same compound, the “Arterial blood pressure, % Δ” value (DOCA Na rat; [3]) was -24.34%, the “Pulse pressure, % Δ” value (DOCA Na rat; [3]) was -34.24% and the “Stroke Volume Index, % Δ” value (DOCA Na rat; [3]) was -16.39%. For the same compound, the “Stroke Volume Index, mean value” (DOCA Na rat; [4]) was 5.86±.31, the “Pulse pressure, mean value” (DOCA Na rat; [4]) was 45±3.5 and the “Arterial blood pressure, mean value” (DOCA Na rat; [4]) was 140.1±16. The “Arterial blood pressure, % Δ” value (DOCA Na rat; [4]) was -19.94%, the “Pulse pressure, % Δ” value (DOCA Na rat; [4]) was -28.00% and the “Stroke Volume Index, % Δ” value (DOCA Na rat; [4]) was 21.58%. The “Stroke Volume Index, mean value” (DOCA Na rat; [5]) was 4.96±0.61, the “Pulse pressure, mean value” (DOCA Na rat; [5]) was 47.4±7.3 and the “Arterial blood pressure, mean value” (DOCA Na rat; [5]) was 140.0±12.6. The “Arterial blood pressure, % Δ” value (DOCA Na rat; [5]) was -20.00%, the “Pulse pressure, % Δ” value (DOCA Na rat; [5]) was -24.16% and the “Stroke Volume Index, % Δ” value (DOCA Na rat; [5]) was 2.90%. For the same compound, the “blood pressure (in words)” value (DOCA Na rat; chronic administration) was “lowered”, the “pulse pressure (in words)” value (DOCA Na rat; chronic administration) was “lowered” and the “pump performance (in words)” value (DOCA Na rat; chronic administration) was “competent”. For the same compound, the “stroke volume index (in words)” value (DOCA Na rat; chronic administration) was “no significant alteration has occurred”, the “ONSET TO MAX. RESPONSE” value (DOCA-Na. rat) was 4 days and the “DURATION OF EFFECT” value (DOCA-Na. rat; monitored until return to pre-drug levels) was 15 days. For the same compound, the LD50 [1] was 1200 mg/kg, the “Average Systolic Blood Pressure Per Group” value ([2]; 10 mg/kg per day for 5 days, Day 1 pm, pre-drug 227, p<.05) was 211 mmHg and the “Average Systolic Blood Pressure Per Group” value ([2]; 10 mg/kg per day for 5 days, Day 2 am, pre-drug 227) was 215 mmHg. For the same compound, the “Average Systolic Blood Pressure Per Group” value ([2]; 10 mg/kg per day for 5 days, Day 2 pm, pre-drug 227) was 217 mmHg, the “Average Systolic Blood Pressure Per Group” value ([2]; 10 mg/kg per day for 5 days, Day 3 am, pre-drug 227, p<.05) was 203 mmHg and the “Average Systolic Blood Pressure Per Group” value ([2]; 10 mg/kg per day for 5 days, Day 3 pm, pre-drug 227, p<.05) was 199 mmHg. The “Average Systolic Blood Pressure Per Group” value ([2]; 10 mg/kg per day for 5 days, Day 4 am, pre-drug 227, p<.05) was 193 mmHg, the “Average Systolic Blood Pressure Per Group” value ([2]; 10 mg/kg per day for 5 days, Day 4 pm, pre-drug 227, p<.05) was 198 mmHg and the “Average Systolic Blood Pressure Per Group” value ([2]; 10 mg/kg per day for 5 days, Day 5 am, pre-drug 227, p<.05) was 200 mmHg. For the same compound, the “Average Systolic Blood Pressure Per Group” value ([2]; 10 mg/kg per day for 5 days, Day 5 pm, pre-drug 227, p<.05) was 209 mmHg, the “Average Systolic Blood Pressure Per Group” value ([2]; 10 mg/kg per day for 5 days, Day 8 am, pre-drug 227, p<.05) was 199 mmHg and the “Average Systolic Blood Pressure Per Group” value ([2]; 20 mg/kg per day for 5 days, Day 1 pm, pre-drug 211) was 201 mmHg. For the same compound, the “Average Systolic Blood Pressure Per Group” value ([2]; 20 mg/kg per day for 5 days, Day 2 am, pre-drug 211) was 209 mmHg, the “Average Systolic Blood Pressure Per Group” value ([2]; 20 mg/kg per day for 5 days, Day 2 pm, pre-drug 211) was 200 mmHg and the “Average Systolic Blood Pressure Per Group” value ([2]; 20 mg/kg per day for 5 days, Day 3 am, pre-drug 211) was 214 mmHg. The “Average Systolic Blood Pressure Per Group” value ([2]; 20 mg/kg per day for 5 days, Day 3 pm, pre-drug 211) was 209 mmHg, the “Average Systolic Blood Pressure Per Group” value ([2]; 20 mg/kg per day for 5 days, Day 4 am, pre-drug 211) was 205 mmHg and the “Average Systolic Blood Pressure Per Group” value ([2]; 20 mg/kg per day for 5 days, Day 4 pm, pre-drug 211) was 204 mmHg. For the same compound, the “Average Systolic Blood Pressure Per Group” value ([2]; 20 mg/kg per day for 5 days, Day 5 am, pre-drug 211) was 210 mmHg, the “Average Systolic Blood Pressure Per Group” value ([2]; 20 mg/kg per day for 5 days, Day 5 pm, pre-drug 211, p<.05) was 187 mmHg and the “Average Systolic Blood Pressure Per Group” value ([2]; 20 mg/kg per day for 5 days, Day 8 am, pre-drug 211) was 210 mmHg. The “Average Systolic Blood Pressure Per Group” value ([2]; 50 mg/kg per day for 5 days, Day 1 pm, pre-drug 215) was 208 mmHg, the “Average Systolic Blood Pressure Per Group” value ([2]; 50 mg/kg per day for 5 days, Day 2 am, pre-drug 215, p<.05) was 193 mmHg and the “Average Systolic Blood Pressure Per Group” value ([2]; 50 mg/kg per day for 5 days, Day 2 pm, pre-drug 215, p<.05) was 176 mmHg. The “Average Systolic Blood Pressure Per Group” value ([2]; 50 mg/kg per day for 5 days, Day 3 am, pre-drug 215, p<.05) was 175 mmHg, the “Average Systolic Blood Pressure Per Group” value ([2]; 50 mg/kg per day for 5 days, Day 3 pm, pre-drug 215, p<.05) was 160 mmHg and the “Average Systolic Blood Pressure Per Group” value ([2]; 50 mg/kg per day for 5 days, Day 4 am, pre-drug 215, p<.05) was 183 mmHg. The “Average Systolic Blood Pressure Per Group” value ([2]; 50 mg/kg per day for 5 days, Day 4 pm, pre-drug 215, p<.05) was 169 mmHg, the “Average Systolic Blood Pressure Per Group” value ([2]; 50 mg/kg per day for 5 days, Day 5 am, pre-drug 215, p<.05) was 184 mmHg and the “Average Systolic Blood Pressure Per Group” value ([2]; 50 mg/kg per day for 5 days, Day 5 pm, pre-drug 215, p<.05) was 167 mmHg. The “Average Systolic Blood Pressure Per Group” value ([2]; 50 mg/kg per day for 5 days, Day 8 am, pre-drug 215) was 207 mmHg, the “Average Systolic Blood Pressure Per Group” value ([2]; 100 mg/kg per day for 5 days, Day 1 pm, pre-drug 218, p<.05) was 176 mmHg and the “Average Systolic Blood Pressure Per Group” value ([2]; 100 mg/kg per day for 5 days, Day 2 am, pre-drug 218, p<.05) was 185 mmHg. For the same compound, the “Average Systolic Blood Pressure Per Group” value ([2]; 100 mg/kg per day for 5 days, Day 2 pm, pre-drug 218, p<.05) was 142 mmHg, the “Average Systolic Blood Pressure Per Group” value ([2]; 100 mg/kg per day for 5 days, Day 3 am, pre-drug 218, p<.05) was 128 mmHg and the “Average Systolic Blood Pressure Per Group” value ([2]; 100 mg/kg per day for 5 days, Day 3 pm, pre-drug 218, p<.05) was 123 mmHg. The “Average Systolic Blood Pressure Per Group” value ([2]; 100 mg/kg per day for 5 days, Day 4 am, pre-drug 218, p<.05) was 113 mmHg, the “Average Systolic Blood Pressure Per Group” value ([2]; 100 mg/kg per day for 5 days, Day 4 pm, pre-drug 218, p<.05) was 131 mmHg and the “Average Systolic Blood Pressure Per Group” value ([2]; 100 mg/kg per day for 5 days, Day 5 pm, pre-drug 218, p<.05) was 108 mmHg.
